The record followed here is patent publication US9228121B2, “Process for the co-encapsulation of biocidally active compounds in clay minerals functionalized by nitrogen compounds” (Clariant S.A., priority 2010, dated 2016).

The nature of data set [1]: Tray test for leaching of biocides from paint film. Conditions: paint with 1000 ppm biocidally active agent, 500 mL distilled water, detection limit 50 ppm. The class given is physicochemical. As to the method: Additionally, the leaching of biocides was evaluated through a tray test in which 50 g of the a paint formulation containing 1000 ppm of biocidally active agent was applied in the bottom of a tray (23.5×38.0 cm) each time and the painting procedure was repeated twice. The film was dried at room temperature for seven days and then 500 mL of distilled water was added to the tray, after 1, 3, 6 and 24 hours a 10 mL sample were taken and analyzed for determination of the biocides.

Data set [2] relates to Algae suspension. The data set can be described thus: Algae growth test on leached dry paint film. The data set is classed as cell-based. Conditions: ppm of BKC relatively to the paint, after leaching. As to the method: Test specimens were prepared by application of two paint coats on watercolor paper ([…]) for each biocidal composition. After application, test specimens were dried during 7 days. After drying, coated substrates were cut in 30 mm squares. The test specimens were evaluated after a leaching test where the coated substrates were leached for 8 and 24 hours in 2 L containers of water with a flow rate such that there are 6 changes of the water in a period of 24 hours. Coated substrates were dried to room temperature for 48 hours and then evaluated in terms of microbiological effectiveness. The algicidal effect on dry film was evaluated as described bellow: Inoculums were prepared with a suspension of algae species (Trentepohlia odorata, Chlorella sp and Scenedesmus quadricauda) at concentration of 10^6 cells/mL. Coated substrates were placed on the center of a pre-poured Bold's Basal Medium agar plates. A thin coat of the algae suspension was applied over the plates. Plates were incubated with humidity ≧85%, 25° C. and cycle of 12 hours light and 12 hours darkness. For each biocidal composition the test was done three times. The algae growth on the sample surface was evaluated weekly for 3 weeks using the following scale: […]

Turning to “C12/C14-alkyldimethyl benzyl ammonium chloride [Dodigen ® 2808]”, the “Tray test: biocide leached into water” value is listed as 164 ppm in data set [1] (1 hour), 177 ppm in data set [1] (3 hours), 190 ppm in data set [1] (6 hours) and 224 ppm in data set [1] (24 hours). The “Effective concentration against algae (ppm relatively to the paint)” value is recorded as >>2000 ppm of BKC in data set [2] and greater than 2000 ppm in data set [2] (listed as neat BKC).
